The text below walks through data of publication PMC9822497, “Identification of Polyphenol Derivatives as Novel SARS-CoV-2 and DENV Non-Nucleoside RdRp Inhibitors” (Molecules, 2022).

Data set [1] deals with SARS-CoV-2 RdRp complex nsp12/nsp8/nsp7 (Severe acute respiratory syndrome coronavirus 2, UniProt P0DTD1). Briefly: biochemical. The conditions noted are these: for inhibition at 50 µM: read-out: Inhibition Rate (%); for IC50: seven concentrations 0.4 to 100 μM, mean ± SD of two independent experiments, read-out: IC50 against SARS-CoV-2 RdRp.
The subject of data set [2] is SARS-CoV-2. Briefly: microbe, parasite or virus in culture. In kind it is cell-based. The conditions noted are these: for EC50: Severe acute respiratory syndrome coronavirus 2, Vero C1008.
A short description of data set [3]: in vitro. The conditions noted are these: African green monkey.
Data set [4] concerns SARS-CoV-2. Particulars: cited from earlier work.
Data set [5] is described as follows: in vitro. The conditions noted are these: human.
The target of data set [6] is Dengue virus RdRp (DENV NS5) (Dengue virus type 3, UniProt Q6YMS4). Description: Fluorescent plate DENV RdRp assay. It counts as biochemical. Particulars: for IC50: purified recombinant Dengue virus RdRp, average ± SD of 2 independent experiments; for Detectable inhibition towards DENV RdRp: screen of Table 1 compounds. The protocol:
To further exploit pan-RNA virus inhibition of the compounds in Table 1, the compounds were evaluated as potential inhibitors of the RdRp domain of DENV NS5. We used a fluorescent-based assay to screen the compounds from Table 1 as potential DENV RdRp inhibitors.
Expression and purification of recombinant Dengue virus NS5 has been described previously. Florescent plate assay based on poly rC RNA and the fluorescent dye PicoGreen was well established for screening inhibitors against Dengue virus RdRp activity. RdRp assays were performed in a 60 μL reaction mixture containing 1.5 μM DENV NS5, 1 µg poly rC, 100 μM GTP, various concentrations of compounds, 5% DMSO, 40 mM Tris–HCl (pH 7.0), 2 mM MnCl2, and 5 mM DTT. The reaction was incubated at 30 °C for 60 min and terminated with 10 mM EDTA after which 100 μL of 200-fold diluted fluorescent dye PicoGreen in TE buffer was added to each well and incubated for 5 min at room temperature. Microplate reader was used to quantitate the amount of dsRNA Fluorescence, under excitation and emission wavelengths of 480 and 520 nm, respectively. Dose-response data were analyzed by nonlinear regression using GraphPad Prism 9.2.0 software. The mean of IC50 values and standard deviation (SD) were determined from the results of two independent experiments.

Data set [7] deals with DENV3. Briefly: DENV3 cell-based qRT-PCR antiviral assay in A549 cells. The conditions noted are these: for EC50 / Selective Index: DENV3/A549. On the procedure: The virus DENV3 clinical strain and A549 cells were used in the cell-based qRT-PCR antiviral assays. Evaluation of antiviral activity was performed as described previously. Briefly, cells infected by dengue virus in the presence of 5-fold serial dilutions of compounds were maintained for 72 h. Supernatant was collected and the virus yield was measured by Cells Direct One-step qRT-PCR kit (Thermo Fisher), according to manufacturer’s instructions. Dose-response data were analyzed by nonlinear regression using GraphPad Prism software. The toxicity of compounds was evaluated in standard MTS analysis without virus in A549 cell line. Graphpad Prism 9.2.0 was used to calculate EC50 (half maximal effective concentration) and CC50 (half cytotoxic concentration) values.
(In general: Real-time PCR tracks product formation cycle by cycle.)

In a further data set the test system is DENV. Also noted: method as in PMID 26574011, PMID 33160000. Particulars: cited from earlier work.
Data set [8] concerns DENV3. On the set-up: method as in PMID 34424050. Particulars: DENV3 in vitro; cited from earlier work.
The next data set has as its system DENV2. On the set-up: method as in PMID 34424050. The conditions noted are these: DENV2 in vitro; cited from earlier work.
Where [9] appears, read: preliminary screening, single concentration of 50 μM.

Like-named read-outs stand apart in the source and are kept apart here.

Chain of Dengue virus RdRp (DENV NS5) (Q6YMS4 2491-3390 limits assumed): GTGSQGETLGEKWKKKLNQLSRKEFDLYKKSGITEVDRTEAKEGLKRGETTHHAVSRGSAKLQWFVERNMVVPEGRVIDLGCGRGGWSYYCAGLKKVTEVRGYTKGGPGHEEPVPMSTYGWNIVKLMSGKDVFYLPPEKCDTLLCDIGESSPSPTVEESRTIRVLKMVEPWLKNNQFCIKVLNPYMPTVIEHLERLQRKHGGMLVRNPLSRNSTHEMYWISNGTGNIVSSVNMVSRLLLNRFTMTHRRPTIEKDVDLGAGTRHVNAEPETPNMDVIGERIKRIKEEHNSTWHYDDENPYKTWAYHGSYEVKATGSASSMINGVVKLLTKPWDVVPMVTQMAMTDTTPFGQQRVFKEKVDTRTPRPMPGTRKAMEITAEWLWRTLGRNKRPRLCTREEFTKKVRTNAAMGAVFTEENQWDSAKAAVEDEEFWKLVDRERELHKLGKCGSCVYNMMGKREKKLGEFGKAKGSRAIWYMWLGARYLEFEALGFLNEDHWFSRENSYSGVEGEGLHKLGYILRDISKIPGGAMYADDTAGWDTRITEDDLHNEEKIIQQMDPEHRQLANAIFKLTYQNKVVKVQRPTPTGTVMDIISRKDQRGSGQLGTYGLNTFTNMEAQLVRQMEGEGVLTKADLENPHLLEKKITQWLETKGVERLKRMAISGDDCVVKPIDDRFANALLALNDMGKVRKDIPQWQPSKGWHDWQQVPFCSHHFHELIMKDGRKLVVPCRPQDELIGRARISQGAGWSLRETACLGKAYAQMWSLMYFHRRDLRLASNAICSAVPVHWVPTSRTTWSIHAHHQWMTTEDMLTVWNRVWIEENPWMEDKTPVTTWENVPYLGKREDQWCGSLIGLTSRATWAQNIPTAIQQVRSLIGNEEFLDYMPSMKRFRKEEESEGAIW

Turning to `O=c1cc(-c2ccccc2)oc2cc(O)c(O)c(O)c12` [Baicalein, reference compound], in data set [1], the “Inhibition of RdRp activity at 10 μM (gel)” value (“Inhibition of RdRp activity” below) was “remained partially active”. In the data set with SARS-CoV-2 [2], the “Selective Index” value is listed as 19.1 and the EC50 (commonly the concentration needed to bring the measured effect to its halfway point) came to 4.5 µM. The same compound had a CC50 in the data set “in vitro [3]” of 86 µM.
Take `O=C(O)[C@H]1O[C@@H](Oc2cc3oc(-c4ccccc4)cc(=O)c3c(O)c2O)[C@H](O)[C@@H](O)[C@@H]1O` [Baicalin]: the EC50 with SARS-CoV-2 [4] (SARS-CoV-2 inhibitors) was 9 µM.
For the compound `COc1ccc(CNC(=O)C2CN(S(=O)(=O)c3ccc(N)cc3)CCN2C(=O)c2cc(O)c(O)c(O)c2)cc1` (centres unmarked) [DF-35], the melting point – broadly, the temperature of the solid-liquid transition – lay in the range of 192 to 195 °C. Further, the inhibition (usually the drop in the measured response relative to a control, in per cent) at 50 µM in data set [1] stood at 81%.
Consider `Nc1ccc(S(=O)(=O)N2CCN(C(=O)c3cc(O)c(O)c(O)c3)C(C(=O)NCc3ccco3)C2)cc1` (centres unmarked) [DF-36], for which the melting point was 181 to 184 °C. Moreover, in data set [1], the “Inhibition of RdRp activity” value was “remained partially active” and the inhibition at 50 µM is 87%.
In the case of `Nc1ccc(S(=O)(=O)N2CCN(C(=O)c3cc(O)c(O)c(O)c3)C(C(=O)NCc3ccc(-c4ccccc4)cc3)C2)cc1` (centres unmarked) [DF-47], the melting point was in the range of 193 to 196 °C. In data set [1], the “Inhibition of RdRp activity” value is “remained partially active” and the IC50 (usually the concentration that inhibits the measured activity by half) was 9.2 ± 1.1 µM. Further, the inhibition at 50 µM in data set [1] (setting [9]) was found to be 92%. In “in vitro [5]”, this compound gave a CC50 of over 100 µM. Moreover, in data set [6], the IC50 came out at 14 ± 2.3 µM and the “Detectable inhibition towards DENV RdRp” value is “detectable inhibition”. For the same compound, in the data set on SARS-CoV-2 [2], the “Antiviral activity against SARS-CoV-2 in vitro” value is “no significant antiviral activity” and the EC50 was over 100 µM. Further, in the data set with DENV3 [7], the “Inhibition of DENV3 in A549 cells” value is “moderate inhibition”, a half-maximal effect (EC50) was put at 51.9 ± 26.3 µM and the “Selective Index” value is recorded as over 1.9. For the same compound, in “in vitro [3]”, the CC50 is over 100 µM.
As for `N#Cc1ccc(S(=O)(=O)N2CCN(C(=O)c3cc(O)c(O)c(O)c3)C(C(=O)NCc3ccc(-c4ccccc4)cc3)C2)cc1` (centres unmarked) [DF-51], in [1], the “Inhibition of RdRp activity” value is recorded as “remained partially active” and the half-inhibitory concentration (IC50) was determined as 22 ± 1.3 µM. For the same compound, the inhibition at 50 µM in [1] (setting [9]) is 90%. Further, the CC50 in the data set “in vitro [5]” was over 100 µM. Besides, in [6], the IC50 was 4.8 ± 0.7 µM and the “Detectable inhibition towards DENV RdRp” value is on record as “detectable inhibition”. Besides, in the data set on SARS-CoV-2 [2], the “Antiviral activity against SARS-CoV-2 in vitro” value was “no significant antiviral activity” and the EC50 is over 89 µM. Besides, in the data set on DENV3 [7], the “Inhibition of DENV3 in A549 cells” value is on record as “moderate inhibition”, the response was half-maximal at 21.5 ± 14.9 µM (EC50) and the “Selective Index” value is given as over 4.6. Besides, the CC50 in “in vitro [3]” is over 100 µM.
Regarding `Nc1ccc(S(=O)(=O)N2CCN(C(=O)c3cc(O)c(O)c(O)c3)CC2C(=O)Nc2ccccc2)cc1` (centres unmarked) [DF-57], the melting point lay in the range of 173 to 176 °C. In addition, the inhibition at 50 µM in data set [1] amounted to 85%.
With `CN(C(=O)C1CN(C(=O)c2cc(O)c(O)c(O)c2)CCN1S(=O)(=O)c1ccc(N)cc1)c1ccccc1` (centres unmarked) [DF-63], the melting point is 172 to 175 °C. In addition, the inhibition at 50 µM in [1] stood at 75%.
The like results for `COc1ccc(CNC(=O)C2CN(C(=O)c3cc(O)c(O)c(O)c3)CCN2S(=O)(=O)c2ccc(N)cc2)cc1` (centres unmarked) [DF-64] were, in that order, 202 to 205 °C and 80%.
The compound `Nc1ccc(S(=O)(=O)N2CCN(C(=O)c3cc(O)c(O)c(O)c3)CC2C(=O)NCc2cccc3ccccc23)cc1` (centres unmarked) [DF-67] returned a melting point of 189 to 192 °C. The inhibition at 50 µM in data set [1] turned out to be 83%.
The matching figures for `Nc1ccc(S(=O)(=O)N2CCN(C(=O)c3cc(O)c(O)c(O)c3)CC2C(=O)NCc2cccs2)cc1` (centres unmarked) [DF-68]: 213 to 216 °C and 73%.
The like results for `Nc1ccc(S(=O)(=O)N2CCN(C(=O)c3cc(O)c(O)c(O)c3)CC2C(=O)NCc2ccc(-c3ccccc3)cc2)cc1` (centres unmarked) [DF-69] were, in that order, 192 to 195 °C and 72%.
The matching figures for `CC(C)(C)OC(=O)N1CCC2(CCN(C(=O)C3CN(C(=O)c4cc(O)c(O)c(O)c4)CCN3S(=O)(=O)c3ccc(N)cc3)C2)C1` (centres unmarked) [DF-71]: 192 to 195 °C and 70%.
As for `O=C(NO)c1ncc(CS(=O)(=O)c2ccccc2)c(CO)c1O` [DMB220], in the data set on DENV, the EC50 was 2.7 ± 0.6 µM.
On to `CC(C)C(=O)OC[C@H]1O[C@@H](n2ccc(NO)nc2=O)[C@H](O)[C@@H]1O` [Molnupiravir], for which the half-maximal effective concentration (EC50) with SARS-CoV-2 [4] (nucleoside RdRp inhibitors) was 0.3 µM.
`CCC(CC)COC(=O)[C@H](C)N[P@](=O)(OC[C@H]1O[C@@](C#N)(c2ccc3c(N)ncnn23)[C@H](O)[C@@H]1O)Oc1ccccc1` [Remdesivir, reference compound]: the response in the data set with SARS-CoV-2 [2] was half-maximal at 0.046 ± 0.0002 µM (EC50). This compound also gave a CC50 in the data set “in vitro [3]” of 10.1 µM.
Turning to Bemnifosbuvir, in the data set with SARS-CoV-2 [4], the EC90 (as a rule, the concentration needed for an effect of 90%) is 0.47 µM. Besides, the concentration giving a half-maximal response (EC50) was 0.77 µM in the data set with DENV3 [8] and 0.48 µM in the data set with DENV2.
